Data: paper PMC9780108, “An intrinsically disordered antimicrobial peptide dendrimer from stereorandomized virtual screening” (Cell Reports. Physical Science, 2022)
Converted amounts (≈) assume the structure as drawn. Positions of bridges follow the written chain, without caps; N, C: chain ends. Non-standard residues stand in square brackets, D forms with d. Residues, ends and D or L forms follow the SMILES beside them. Groups on a side chain read outwards from the residue. Chains are numbered I, II in the order given. *: point of attachment. X3 = CC(C)C[C@H](NC(=O)CCCCCN)C(=O)NCCCC[C@H](NC(=O)[C@H](CC(C)C)NC(=O)CCCCCN)C(=O)*; Ahx = NCCCCCC(=O)O

What was measured:
A. baumannii ATCC 19606 = conditions: for MIC at pH 5.0, A. baumannii ATCC 19606: ATCC 19606, pH 5; for MIC at pH 7.4, A. baumannii ATCC 19606: ATCC 19606, pH 7.4; for MIC at pH 8.0, A. baumannii ATCC 19606: ATCC 19606, pH 8
E. coli W3110 = conditions: for MIC at pH 5.0, E. coli W3110: W3110, pH 5; for MIC at pH 7.4, E. coli W3110: W3110, pH 7.4; for MIC at pH 8.0, E. coli W3110: W3110, pH 8
HEK293 cell line = format: cell-based; conditions: 48 h
Protocol: HEK 293 cell line were cultured and maintained in DMEM (Dulbeccos modified Eagle
medium, Sigma Aldrich) supplemented with 10% FBS (Sigma Aldrich) and 1%
penicillin/streptomycin. Cells were incubated in a humidified incubator at 37°C in the presence
HEK 293 cell were seeded into 96 well plates at the density of 2 × 10^3 cells/well and incubated
in DMEM containing 10% FBS for 10-14 hours at 37°C in the presence of 5% CO2. The next
day, stock solution of compounds were prepared at concentration of 2 mg/mL in DMEM
containing 10% FBS. 1/2 or 1/3 serial dilution of the peptide dendrimers from 2 mg/mL or 200
µg/mL were performed in DMEM containing 10% FBS. The medium was removed from cell
culture and replaced with the compounds at different concentration after washing with PBS.
The cells were incubated in DMEM containing 10% FBS at 37°C in the presence of 5% CO 2.
Negative control was untreated cell culture without compounds and blank control was wells
without cell but only medium. After 48 hours, a final concentration of 10% AlamarBlue®
(Thermo Fisher Scientific, Reinach, CH) was added to each well . The cells were incubated for
3-5 hours at 37°C with 5% CO 2. The fluorescence was then measured on a Tecan Infinite
M1000 Pro plate reader at λex = 560 nm and λem = 590 nm. The value was normalized
according to the untreated cells.

P. aeruginosa PAO1 = conditions: for MIC at pH 5.0, P. aeruginosa PAO1: PAO1, pH 5; for MIC at pH 7.4, P. aeruginosa PAO1: PAO1, pH 7.4; for MIC at pH 8.0, P. aeruginosa PAO1: PAO1, pH 8
K. pneumoniae NCTC 418 = conditions: for MIC at pH 5.0, K. pneumoniae NCTC 418: NCTC 418, pH 5; for MIC at pH 7.4, K. pneumoniae NCTC 418: NCTC 418, pH 7.4; for MIC at pH 8.0, K. pneumoniae NCTC 418: NCTC 418, pH 8
[1] = tested on: S aureus COL (methicillin-resistant Staphylococcus aureus); conditions: for MIC at pH 5.0, S aureus COL: COL (methicillin-resistant, pH 5); for MIC at pH 7.4, S aureus COL: COL (methicillin-resistant, pH 7.4); for MIC at pH 8.0, S aureus COL: COL (methicillin-resistant, pH 8)

Compound	MIC at pH 5.0, A. baumannii ATCC 19606 (A. baumannii ATCC 19606) [μg/mL]	MIC at pH 7.4, A. baumannii ATCC 19606 (A. baumannii ATCC 19606) [μg/mL]	MIC at pH 8.0, A. baumannii ATCC 19606 (A. baumannii ATCC 19606) [μg/mL]	MIC at pH 5.0, E. coli W3110 (E. coli W3110)	MIC at pH 7.4, E. coli W3110 (E. coli W3110)	MIC at pH 8.0, E. coli W3110 (E. coli W3110)	IC50 HEK293 (HEK293 cell line) [µg/mL]	MIC at pH 5.0, P. aeruginosa PAO1 (P. aeruginosa PAO1)	MIC at pH 7.4, P. aeruginosa PAO1 (P. aeruginosa PAO1)	MIC at pH 8.0, P. aeruginosa PAO1 (P. aeruginosa PAO1)	MIC at pH 5.0, K. pneumoniae NCTC 418 (K. pneumoniae NCTC 418)	MIC at pH 7.4, K. pneumoniae NCTC 418 (K. pneumoniae NCTC 418)	MIC at pH 8.0, K. pneumoniae NCTC 418 (K. pneumoniae NCTC 418)	MIC at pH 5.0, S aureus COL [1] [μg/mL]	MIC at pH 7.4, S aureus COL [1] [μg/mL]	MIC at pH 8.0, S aureus COL [1] [μg/mL]
CC(C)C[C@H](NC(=O)[C@H](CC(C)C)NC(=O)[C@H](CC(C)C)NC(=O)[C@H](CCCCNC(=O)[C@H](CC(C)C)NC(=O)[C@H](CC(C)C)NC(=O)[C@H](CCCCNC(=O)[C@H](CCCCN)NC(=O)[C@H](CC(C)C)NC(=O)[C@H](CCCCNC(=O)[C@H](CC(C)C)NC(=O)CCCCCN)NC(=O)[C@H](CC(C)C)NC(=O)CCCCCN)NC(=O)[C@H](CCCCN)NC(=O)[C@H](CC(C)C)NC(=O)[C@H](CCCCNC(=O)[C@H](CC(C)C)NC(=O)CCCCCN)NC(=O)[C@H](CC(C)C)NC(=O)CCCCCN)NC(=O)[C@H](CC(C)C)NC(=O)[C@H](CC(C)C)NC(=O)[C@H](CCCCNC(=O)[C@H](CCCCN)NC(=O)[C@H](CC(C)C)NC(=O)[C@H](CCCCNC(=O)[C@H](CC(C)C)NC(=O)CCCCCN)NC(=O)[C@H](CC(C)C)NC(=O)CCCCCN)NC(=O)[C@H](CCCCN)NC(=O)[C@H](CC(C)C)NC(=O)[C@H](CCCCNC(=O)[C@H](CC(C)C)NC(=O)CCCCCN)NC(=O)[C@H](CC(C)C)NC(=O)CCCCCN)C(N)=O [L-aX18] (I: H-[Ahx]LK([Leu-Ahx])LKK([Lys-Leu-X3])LLKLLL-NH2 / II: H-[Ahx]LK([Leu-Ahx])LKK([Lys-Leu-X3])LL; amide I:9-II:C)	32	64	32	32 μg/mL	> 64 μg/mL	32 μg/mL	14 ± 0.6 (≈ 3.12 µM)	64/>64/64 μg/mL	64/>64/64 μg/mL	64/>64/64 μg/mL	>64/>64/>64 μg/mL	>64/>64/>64 μg/mL	>64/>64/>64 μg/mL	> 64	> 64	32
CC(C)C[C@H](NC(=O)[C@H](CC(C)C)NC(=O)[C@H](CC(C)C)NC(=O)[C@H](CCCCNC(=O)[C@H](CC(C)C)NC(=O)[C@H](CC(C)C)NC(=O)[C@H](CCCCNC(=O)[C@H](CCCCN)NC(=O)[C@H](CC(C)C)NC(=O)[C@H](CCCCNC(=O)[C@H](CC(C)C)NC(=O)[C@@H](N)CCCCN)NC(=O)[C@H](CC(C)C)NC(=O)[C@@H](N)CCCCN)NC(=O)[C@H](CCCCN)NC(=O)[C@H](CC(C)C)NC(=O)[C@H](CCCCNC(=O)[C@H](CC(C)C)NC(=O)[C@@H](N)CCCCN)NC(=O)[C@H](CC(C)C)NC(=O)[C@@H](N)CCCCN)NC(=O)[C@H](CC(C)C)NC(=O)[C@H](CC(C)C)NC(=O)[C@H](CCCCNC(=O)[C@H](CCCCN)NC(=O)[C@H](CC(C)C)NC(=O)[C@H](CCCCNC(=O)[C@H](CC(C)C)NC(=O)[C@@H](N)CCCCN)NC(=O)[C@H](CC(C)C)NC(=O)[C@@H](N)CCCCN)NC(=O)[C@H](CCCCN)NC(=O)[C@H](CC(C)C)NC(=O)[C@H](CCCCNC(=O)[C@H](CC(C)C)NC(=O)[C@@H](N)CCCCN)NC(=O)[C@H](CC(C)C)NC(=O)[C@@H](N)CCCCN)C(N)=O [L-X18] (HELM PEPTIDE1{K.L.K.L.K.K.L.L.K.L.L.L.[am]}|PEPTIDE2{K.L}|PEPTIDE3{K.L.K.L.K.K.L.L}|PEPTIDE4{K.L}|PEPTIDE5{K.L.K.L.K}|PEPTIDE6{K.L}|PEPTIDE7{K.L.K.L.K}|PEPTIDE8{K.L}$PEPTIDE1,PEPTIDE2,3:R3-2:R2|PEPTIDE3,PEPTIDE4,3:R3-2:R2|PEPTIDE5,PEPTIDE6,3:R3-2:R2|PEPTIDE7,PEPTIDE8,3:R3-2:R2|PEPTIDE1,PEPTIDE7,6:R3-5:R2|PEPTIDE1,PEPTIDE3,9:R3-8:R2|PEPTIDE3,PEPTIDE5,6:R3-5:R2$$$V2.0)	16	32	16	16/16/16 μg/mL	16/16/16 μg/mL	16/16/16 μg/mL	52 ± 4 (≈ 11.3 µM)	16 μg/mL	32 μg/mL	16 μg/mL	> 64 μg/mL	> 64 μg/mL	32 μg/mL	> 64	> 64	16
CC(C)C[C@@H](NC(=O)[C@@H](CC(C)C)NC(=O)[C@@H](CC(C)C)NC(=O)[C@@H](CCCCNC(=O)[C@@H](CC(C)C)NC(=O)[C@@H](CC(C)C)NC(=O)[C@@H](CCCCNC(=O)[C@@H](CCCCN)NC(=O)[C@@H](CC(C)C)NC(=O)[C@@H](CCCCNC(=O)[C@@H](CC(C)C)NC(=O)[C@H](N)CCCCN)NC(=O)[C@@H](CC(C)C)NC(=O)[C@H](N)CCCCN)NC(=O)[C@@H](CCCCN)NC(=O)[C@@H](CC(C)C)NC(=O)[C@@H](CCCCNC(=O)[C@@H](CC(C)C)NC(=O)[C@H](N)CCCCN)NC(=O)[C@@H](CC(C)C)NC(=O)[C@H](N)CCCCN)NC(=O)[C@@H](CC(C)C)NC(=O)[C@@H](CC(C)C)NC(=O)[C@@H](CCCCNC(=O)[C@@H](CCCCN)NC(=O)[C@@H](CC(C)C)NC(=O)[C@@H](CCCCNC(=O)[C@@H](CC(C)C)NC(=O)[C@H](N)CCCCN)NC(=O)[C@@H](CC(C)C)NC(=O)[C@H](N)CCCCN)NC(=O)[C@@H](CCCCN)NC(=O)[C@@H](CC(C)C)NC(=O)[C@@H](CCCCNC(=O)[C@@H](CC(C)C)NC(=O)[C@H](N)CCCCN)NC(=O)[C@@H](CC(C)C)NC(=O)[C@H](N)CCCCN)C(N)=O [D-X18] (HELM PEPTIDE1{[dK].[dL].[dK].[dL].[dK].[dK].[dL].[dL].[dK].[dL].[dL].[dL].[am]}|PEPTIDE2{[dK].[dL]}|PEPTIDE3{[dK].[dL].[dK].[dL].[dK].[dK].[dL].[dL]}|PEPTIDE4{[dK].[dL]}|PEPTIDE5{[dK].[dL].[dK].[dL].[dK]}|PEPTIDE6{[dK].[dL]}|PEPTIDE7{[dK].[dL].[dK].[dL].[dK]}|PEPTIDE8{[dK].[dL]}$PEPTIDE1,PEPTIDE2,3:R3-2:R2|PEPTIDE3,PEPTIDE4,3:R3-2:R2|PEPTIDE5,PEPTIDE6,3:R3-2:R2|PEPTIDE7,PEPTIDE8,3:R3-2:R2|PEPTIDE1,PEPTIDE7,6:R3-5:R2|PEPTIDE1,PEPTIDE3,9:R3-8:R2|PEPTIDE3,PEPTIDE5,6:R3-5:R2$$$V2.0)	32	64	32	32 μg/mL	64 μg/mL	32 μg/mL	47 ± 12 (≈ 10.2 µM)	32 μg/mL	64 μg/mL	32 μg/mL	>64/>64/>64 μg/mL	>64/>64/>64 μg/mL	>64/>64/>64 μg/mL	> 64	> 64	32
